According to PubChem BioAssay AID1963875 (Molecular Pharmacology Branch, DTP, NCI, 2024):

System: KRAS-mutant PDC complex spheroid viability
Test: Anticancer human tumor 186277-243-T-J2-PDC patient-derived colon adenocarcinoma cell line growth inhibition [KRAS2]
Conditions: for IC50: curve of first compound; for viability, T/C: stronger effect = lower value
Procedure, shortened: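 KRAS-mutant tumor cells were grown as spheroids with HUVEC endothelial cells and human MSCs as stroma. Targeted agents were tested alone and with KRAS pathway inhibitors. Doses started at or near clinical Cmax, or 10 microM, descending half-log.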

[1] = second compound 0.1 µM, first compound 0.0316 µM
[2] = second compound 0.1 µM, first compound 0.1 µM
[3] = second compound 0.1 µM, first compound 0.316 µM
[4] = second compound 0.1 µM, first compound 1 µM
[5] = second compound 0.1 µM, first compound 3.16 µM
[6] = second compound 0.1 µM, first compound 10 µM
[7] = second compound 0.316 µM, first compound 0.0316 µM
[8] = second compound 0.316 µM, first compound 0.1 µM
[9] = second compound 0.316 µM, first compound 0.316 µM
[10] = second compound 0.316 µM, first compound 1 µM
[11] = second compound 0.316 µM, first compound 3.16 µM
[12] = second compound 0.316 µM, first compound 10 µM
[13] = second compound 1 µM, first compound 0.0316 µM
[14] = second compound 1 µM, first compound 0.1 µM
[15] = second compound 1 µM, first compound 0.316 µM
[16] = second compound 1 µM, first compound 1 µM
[17] = second compound 1 µM, first compound 3.16 µM
[18] = second compound 1 µM, first compound 10 µM
[19] = second compound 3.16 µM, first compound 0.0316 µM
[20] = second compound 3.16 µM, first compound 0.1 µM
[21] = second compound 3.16 µM, first compound 0.316 µM
[22] = second compound 3.16 µM, first compound 1 µM
[23] = second compound 3.16 µM, first compound 3.16 µM
[24] = second compound 3.16 µM, first compound 10 µM
[25] = second compound 10 µM, first compound 0.0316 µM
[26] = second compound 10 µM, first compound 0.1 µM
[27] = second compound 10 µM, first compound 0.316 µM
[28] = second compound 10 µM, first compound 1 µM
[29] = second compound 10 µM, first compound 3.16 µM
[30] = second compound 10 µM, first compound 10 µM
[31] = second compound 0.0316 µM, first compound 0.0316 µM
[32] = second compound 0.0316 µM, first compound 0.1 µM
[33] = second compound 0.0316 µM, first compound 0.316 µM
[34] = second compound 0.0316 µM, first compound 1 µM
[35] = second compound 0.0316 µM, first compound 3.16 µM
[36] = second compound 0.0316 µM, first compound 10 µM
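For viability, T/C in this document: viability read after seven days of compound exposure; 100% = DMSO vehicle-treated spheroids so lower means less viable.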

| SMILES | IC50 (second compound 0.1 µM) [µM] | IC50 (second compound 0.316 µM) [µM] | IC50 (second compound 1 µM) [µM] | IC50 (second compound 3.16 µM) [µM] | viability, T/C [1] [%] | viability, T/C [2] [%] | viability, T/C [3] [%] | viability, T/C [4] [%] | viability, T/C [5] [%] | viability, T/C [6] [%] | viability, T/C [7] [%] | viability, T/C [8] [%] | viability, T/C [9] [%] | viability, T/C [10] [%] | viability, T/C [11] [%] | viability, T/C [12] [%] | viability, T/C [13] [%] | viability, T/C [14] [%] | viability, T/C [15] [%] | viability, T/C [16] [%] | other results |
| --- | --- | --- | --- | --- | --- | --- | --- | --- | --- | --- | --- | --- | --- | --- | --- | --- | --- | --- | --- | --- | --- |
| COc1cc2nccc(Oc3ccc(NC(=O)C4(C(=O)Nc5ccc(F)cc5)CC4)cc3)c2cc1OC + COc1cc2nc(C)nc(NC(C)c3cc(N)cc(C(F)(F)F)c3)c2cc1OC1CCOC1 | 0.882 | 0.866 | 0.779 | 0.726 | 98.2 | 112 | 114 | 12.5 | 15.8 | 101 | 105 | 102 | 97.8 | 13.9 | 13.5 | 102 | 108 | 108 | 82.2 | 11.3 | IC50 (second compound 10 µM): 0.187 µM; viability, T/C [17]: 10.7%; viability, T/C [18]: 101%; viability, T/C [19]: 114%; viability, T/C [20]: 114%; viability, T/C [21]: 80.7%; viability, T/C [22]: 9.28%; viability, T/C [23]: 1.53%; viability, T/C [24]: 104%; viability, T/C [25]: 92.2%; viability, T/C [26]: 66.9%; viability, T/C [27]: 39.4%; viability, T/C [28]: 1.55%; viability, T/C [29]: 0.17%; viability, T/C [30]: 89% |
| O=C(c1cc(Cc2n[nH]c(=O)c3ccccc23)ccc1F)N1CCN(C(=O)C2CC2)CC1 + COc1cc2nc(C)nc(NC(C)c3cc(N)cc(C(F)(F)F)c3)c2cc1OC1CCOC1 | 8.25 | 5.9 | 8.78 | 4.49 | 107 | 105 | 114 | 116 | 99.1 | 40.1 | 105 | 102 | 107 | 116 | 67.9 | 34.8 | 111 | 104 | 107 | 122 | IC50 (second compound 10 µM): 0.872 µM; viability, T/C [17]: 88.2%; viability, T/C [18]: 45.1%; viability, T/C [19]: 109%; viability, T/C [20]: 98.3%; viability, T/C [21]: 109%; viability, T/C [22]: 110%; viability, T/C [23]: 61%; viability, T/C [24]: 25.1%; viability, T/C [25]: 102%; viability, T/C [26]: 101%; viability, T/C [27]: 81.3%; viability, T/C [28]: 48.4%; viability, T/C [29]: 11.5%; viability, T/C [30]: 10.1% |
| O=C(c1cc(Cc2n[nH]c(=O)c3ccccc23)ccc1F)N1CCN(C(=O)C2CC2)CC1 + C=CC(=O)N1CCN(c2nc(OCC3CCCN3C)nc3c2CCN(c2cccc4cccc(C)c24)C3)CC1CC#N | 3.53 | 8.7 | 7.63 | < 0.0316 | 104 | 119 | 121 | 114 | 51.6 | 34.3 | 113 | 111 | 116 | 118 | 72.2 | 47 | 108 | 107 | 107 | 107 | IC50 (second compound 0.0316 µM): 1.17 µM; viability, T/C [31]: 105%; viability, T/C [32]: 107%; viability, T/C [33]: 96.2%; viability, T/C [34]: 53.1%; viability, T/C [35]: 30.7%; viability, T/C [36]: 26.6%; viability, T/C [17]: 77.3%; viability, T/C [18]: 41.6%; viability, T/C [19]: 0.23%; viability, T/C [20]: 0.3%; viability, T/C [21]: 0.47%; viability, T/C [22]: 0.26%; viability, T/C [23]: 0.28%; viability, T/C [24]: 0.22% |
| CC(C)NCC(C(=O)N1CCN(c2ncnc3c2C(C)CC3O)CC1)c1ccc(Cl)cc1 (stereo unspecified) + C=CC(=O)N1CCN(c2nc(OCC3CCCN3C)nc3c2CCN(c2cccc4cccc(C)c24)C3)CC1CC#N | 0.664 | 0.505 | 0.248 | < 0.0316 | 113 | 87.8 | 72.7 | 36.5 | 23.6 | 12.3 | 108 | 96.3 | 62.4 | 29.9 | 19.2 | 8.67 | 97.8 | 104 | 36.3 | 18.4 | IC50 (second compound 0.0316 µM): 0.691 µM; viability, T/C [31]: 93.5%; viability, T/C [32]: 105%; viability, T/C [33]: 73.5%; viability, T/C [34]: 37%; viability, T/C [35]: 26.5%; viability, T/C [36]: 11.2%; viability, T/C [17]: 9.11%; viability, T/C [18]: 4.64%; viability, T/C [19]: 0.22%; viability, T/C [20]: 0.21%; viability, T/C [21]: 0.16%; viability, T/C [22]: 0.13%; viability, T/C [23]: 0.12%; viability, T/C [24]: 0.21% |
| COc1cc(OC)cc(N(CCNC(C)C)c2ccc3ncc(-c4cnn(C)c4)nc3c2)c1 | – | – | – | – | – | – | – | – | – | – | – | – | – | – | – | – | – | – | – | – | viability, T/C (compound 0.0316 µM): 109% [middle of 5 runs]; viability, T/C (compound 0.1 µM): 106% [middle of 5 runs] |
| CC1OCC2(CCN(c3cnc(Sc4ccnc(N)c4Cl)c(N)n3)CC2)C1N (stereo unspecified) + COc1cc2nc(C)nc(NC(C)c3cc(N)cc(C(F)(F)F)c3)c2cc1OC1CCOC1 | > 10 | > 10 | > 10 | > 10 | 103 | 96.1 | 104 | 108 | 109 | 112 | 106 | 104 | 93.9 | 100 | 115 | 98.1 | 99.9 | 101 | 103 | 104 | IC50 (second compound 10 µM): 1.52 µM; viability, T/C [17]: 114%; viability, T/C [18]: 85.4%; viability, T/C [19]: 98.9%; viability, T/C [20]: 87.6%; viability, T/C [21]: 96.7%; viability, T/C [22]: 114%; viability, T/C [23]: 111%; viability, T/C [24]: 78.8%; viability, T/C [25]: 93.6%; viability, T/C [26]: 96.7%; viability, T/C [27]: 93.5%; viability, T/C [28]: 50.5%; viability, T/C [29]: 39%; viability, T/C [30]: 9.31% |
| O=C(c1cc(Cc2n[nH]c(=O)c3ccccc23)ccc1F)N1CCN(C(=O)C2CC2)CC1 | – | – | – | – | – | – | – | – | – | – | – | – | – | – | – | – | – | – | – | – | viability, T/C (compound 0.0316 µM): 99.2% [middle of 5 runs]; viability, T/C (compound 0.1 µM): 101% [middle of 5 runs]; viability, T/C (compound 0.316 µM): 99.5% [middle of 5 runs]; viability, T/C (compound 10 µM): 40.3% [middle of 5 runs] |
